Experimental data reported in PubChem BioAssay AID1259407 (Chemical Carcinogenesis Research Information System (CCRIS), 2018).
Calls of active or inactive are those of the source. How the calls were made is not given here.

Tested on: CCRIS mutagenicity, Ames/micronucleus/aberration tests
Experiment: CCRIS mutagenicity studies
[1] = Test System: AMES SALMONELLA TYPHIMURIUM, Strain/Indicator: TA98, Metabolic Activation: NONE, Method: PREINCUBATION
[2] = Test System: AMES SALMONELLA TYPHIMURIUM, Strain/Indicator: TA100, Metabolic Activation: NONE, Method: PREINCUBATION
[3] = Test System: AMES SALMONELLA TYPHIMURIUM, Strain/Indicator: TA1535, Metabolic Activation: NONE, Method: PREINCUBATION
[4] = Test System: AMES SALMONELLA TYPHIMURIUM, Strain/Indicator: TA1537, Metabolic Activation: NONE, Method: PREINCUBATION

## C[N+](C)=c1ccc2nc3ccc(N)cc3sc-2c1
Test System: Ames Salmonella typhimurium, Strain/Indicator: TA98, Metabolic Activation: Rat, Liver, S-9, Aroclor 1254 (10%), Method: Preincubation
  mutagenic call: active; positive
Test System: Ames Salmonella typhimurium, Strain/Indicator: TA98, Strain/Sex: TA98, Metabolic Activation: None, Method: Preincubation
  mutagenic call: active; positive
Test System: Ames Salmonella typhimurium, Strain/Indicator: TA100, Metabolic Activation: None, Method: Preincubation
  mutagenic call: active; positive
Test System: Ames Salmonella typhimurium, Strain/Indicator: TA100, Metabolic Activation: Rat, Liver, S-9, Aroclor 1254 (10%), Method: Preincubation
  mutagenic call: active; positive
Test System: E. coli, Strain/Indicator: WPM uvrA/pKM101, Metabolic Activation: None, Method: Preincubation
  mutagenic call: active; positive
Test System: E. coli, Strain/Indicator: WPM uvrA/pKM101, Metabolic Activation: Rat, Liver, S-9, Aroclor 1254 (10%), Method: Preincubation
  mutagenic call: active; positive

## CCc1nc2ccc(NC)c(C)c2nc1CC
[1]
  mutagenic call: inactive; negative
Test System: AMES SALMONELLA TYPHIMURIUM, Strain/Indicator: TA98, Metabolic Activation: RAT, LIVER, S-9, PCB, Method: PREINCUBATION
  mutagenic call: active; positive
[2]
  mutagenic call: inactive; negative
Test System: AMES SALMONELLA TYPHIMURIUM, Strain/Indicator: TA100, Metabolic Activation: RAT, LIVER, S-9, PCB, Method: PREINCUBATION
  mutagenic call: active; positive

## CC(=O)Nc1cccc2ncccc12
[1]
  mutagenic call: inactive; negative
Test System: AMES SALMONELLA TYPHIMURIUM, Strain/Indicator: TA98, Metabolic Activation: RAT, LIVER, S-9, KANECHLOR 500, Method: PREINCUBATION
  mutagenic call: inactive; negative
[2]
  mutagenic call: inactive; negative
Test System: AMES SALMONELLA TYPHIMURIUM, Strain/Indicator: TA100, Metabolic Activation: RAT, LIVER, S-9, KANECHLOR 500, Method: PREINCUBATION
  mutagenic call: inactive; negative

## Cc1ccc(S(=O)(=O)NC2CCCCC2)cc1
Test System: AMES SALMONELLA TYPHIMURIUM, Strain/Indicator: TA97, Metabolic Activation: HAMSTER, LIVER, S-9, AROCLOR 1254 (10 OR 30%), Method: PREINCUBATION
  mutagenic call: inactive; negative
Test System: AMES SALMONELLA TYPHIMURIUM, Strain/Indicator: TA97, Metabolic Activation: NONE, Method: PREINCUBATION
  mutagenic call: inactive; negative
Test System: AMES SALMONELLA TYPHIMURIUM, Strain/Indicator: TA97, Metabolic Activation: RAT, LIVER, S-9, AROCLOR 1254 (10 OR 30%), Method: PREINCUBATION
  mutagenic call: inactive; negative
Test System: AMES SALMONELLA TYPHIMURIUM, Strain/Indicator: TA98, Metabolic Activation: HAMSTER, LIVER, S-9, AROCLOR 1254 (10 OR 30%), Method: PREINCUBATION
  mutagenic call: inactive; negative
Test System: AMES SALMONELLA TYPHIMURIUM, Strain/Indicator: TA98, Metabolic Activation: RAT, LIVER, S-9, AROCLOR 1254 (10%), Method: PREINCUBATION
  mutagenic call: inactive; negative
Test System: AMES SALMONELLA TYPHIMURIUM, Strain/Indicator: TA98, Metabolic Activation: RAT, LIVER, S-9, AROCLOR 1254 (30%), Method: PREINCUBATION
  mutagenic call: inactive; negative
Test System: AMES SALMONELLA TYPHIMURIUM, Strain/Indicator: TA100, Metabolic Activation: HAMSTER, LIVER, S-9, AROCLOR 1254 (10 OR 30%), Method: PREINCUBATION
  mutagenic call: inactive; negative
[2]
  mutagenic call: inactive; negative
Test System: AMES SALMONELLA TYPHIMURIUM, Strain/Indicator: TA100, Metabolic Activation: RAT, LIVER, S-9, AROCLOR 1254 (10%), Method: PREINCUBATION
  mutagenic call: inactive; negative
Test System: AMES SALMONELLA TYPHIMURIUM, Strain/Indicator: TA100, Metabolic Activation: RAT, LIVER, S-9, AROCLOR 1254 (30%), Method: PREINCUBATION
  mutagenic call: inactive; negative
Test System: AMES SALMONELLA TYPHIMURIUM, Strain/Indicator: TA1535, Metabolic Activation: HAMSTER, LIVER, S-9, AROCLOR 1254 (10 OR 30%), Method: PREINCUBATION
  mutagenic call: inactive; negative
[3]
  mutagenic call: inactive; negative
Test System: AMES SALMONELLA TYPHIMURIUM, Strain/Indicator: TA1535, Metabolic Activation: RAT, LIVER, S-9, AROCLOR 1254 (10 OR 30%), Method: PREINCUBATION
  mutagenic call: inactive; negative
Test System: AMES SALMONELLA TYPHIMURIUM, Strain/Indicator: TA1537, Metabolic Activation: HAMSTER, LIVER, S-9, AROCLOR 1254 (30%), Method: PREINCUBATION
  mutagenic call: inactive; negative
[4]
  mutagenic call: inactive; negative
Test System: AMES SALMONELLA TYPHIMURIUM, Strain/Indicator: TA1537, Metabolic Activation: RAT, LIVER, S-9, AROCLOR 1254 (30%), Method: PREINCUBATION
  mutagenic call: inactive; negative

## CC(=O)O.CC(=O)O.O.O.[O]=[U]=[O]
Test System: Chinese hamster ovary, Strain/Indicator: AA8 (HPRT)/6-Thioguanine, Metabolic Activation: None, Method: Standard plate
  mutagenic call: inactive; negative
Test System: Chinese hamster ovary, Strain/Indicator: EM9 (HPRT)/6-Thioguanine, Metabolic Activation: None, Method: Standard plate
  mutagenic call: active; positive, em9 cho cells are xrcc1-deficient.

## CN(C)C(=N)N=C(N)N
End Point: In vivo micronucleus, Test System: Bone marrow erythrocytes, Species: Mouse, Strain/Sex: Swiss albino/Male, Route: Oral
  mutagenic call: inactive; negative

## ClC1(Cl)C2(Cl)C3(Cl)C4(Cl)C(Cl)(Cl)C5(Cl)C3(Cl)C1(Cl)C5(Cl)C24Cl (stereo unspecified)
Test System: AMES SALMONELLA TYPHIMURIUM, Strain/Indicator: TA98, Metabolic Activation: HAMSTER, LIVER, S-9, AROCLOR 1254, Method: PREINCUBATION
  mutagenic call: inactive; negative
[1]
  mutagenic call: inactive; negative
Test System: AMES SALMONELLA TYPHIMURIUM, Strain/Indicator: TA98, Metabolic Activation: RAT, LIVER, S-9, AROCLOR 1254, Method: PREINCUBATION
  mutagenic call: inactive; negative
Test System: AMES SALMONELLA TYPHIMURIUM, Strain/Indicator: TA100, Metabolic Activation: HAMSTER, LIVER, S-9, AROCLOR 1254, Method: PREINCUBATION
  mutagenic call: inactive; negative
[2]
  mutagenic call: inactive; negative
Test System: AMES SALMONELLA TYPHIMURIUM, Strain/Indicator: TA100, Metabolic Activation: RAT, LIVER, S-9, AROCLOR 1254, Method: PREINCUBATION
  mutagenic call: inactive; negative
Test System: AMES SALMONELLA TYPHIMURIUM, Strain/Indicator: TA1535, Metabolic Activation: HAMSTER, LIVER, S-9, AROCLOR 1254, Method: PREINCUBATION
  mutagenic call: inactive; negative
[3]
  mutagenic call: inactive; negative
Test System: AMES SALMONELLA TYPHIMURIUM, Strain/Indicator: TA1535, Metabolic Activation: RAT, LIVER, S-9, AROCLOR 1254, Method: PREINCUBATION
  mutagenic call: inactive; negative
Test System: AMES SALMONELLA TYPHIMURIUM, Strain/Indicator: TA1537, Metabolic Activation: HAMSTER, LIVER, S-9, AROCLOR 1254, Method: PREINCUBATION
  mutagenic call: inactive; negative
[4]
  mutagenic call: inactive; negative
Test System: AMES SALMONELLA TYPHIMURIUM, Strain/Indicator: TA1537, Metabolic Activation: RAT, LIVER, S-9, AROCLOR 1254, Method: PREINCUBATION
  mutagenic call: inactive; negative

## CCCCl
End Point: In vitro micronucleus, Test System: Chinese Hamster Ovary (CHO-WBL) cells, Metabolic Activation: None
  mutagenic call: inactive; negative
